In patent US20240383904A1, “HETEROCYCLIC COMPOUNDS” (Hoffmann-La Roche Inc., priority 2021, published 2024):
pIC50: −log10 of the molar value.

Target: T1, MAGL (Homo sapiens, UniProt Q99685)
T1 sequence (Q99685 1-303): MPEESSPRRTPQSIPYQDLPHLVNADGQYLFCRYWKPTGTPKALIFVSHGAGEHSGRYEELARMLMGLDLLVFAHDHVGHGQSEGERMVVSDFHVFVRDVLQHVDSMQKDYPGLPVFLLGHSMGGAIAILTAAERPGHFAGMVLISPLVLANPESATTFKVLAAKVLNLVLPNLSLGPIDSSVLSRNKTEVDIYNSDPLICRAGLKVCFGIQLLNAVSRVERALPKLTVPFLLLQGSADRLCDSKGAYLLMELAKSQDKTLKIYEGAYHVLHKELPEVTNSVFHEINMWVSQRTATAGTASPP
Assay: 2-AG assay: MAGL inhibitory activity by hydrolysis of 2-arachidonoylglycerol to arachidonic acid, followed by mass spectrometry
Type: biochemical
Details: 15 min preincubation, 30 min reaction at RT, 8 μM 2-arachidonoylglycerol
Text: Compounds of formula (I) were profiled for MAGL inhibitory activity by determining the enzymatic activity by following the hydrolysis of the natural substrate 2-arachidonoylglycerol (2-AG) resulting in arachidonic acid, which can be followed by mass spectrometry. This assay is hereinafter abbreviated “2-AG assay”.
Compounds of formula (I) were profiled for MAGL inhibitory activity by determining the enzymatic activity by following the hydrolysis of the natural substrate 2-arachidonoylglycerol (2-AG) resulting in arachidonic acid, which can be followed by mass spectrometry. This assay is hereinafter abbreviated “2-AG assay”. The 2-AG assay was carried out in 384 well polypropylene assay plates. Compound dilutions were made in 100% DMSO in a polypropylene plate in 3-fold dilution steps to give a final concentration range in the assay from 12.5 μM to […]. Compound dilutions were added to MAGL protein in assay buffer (50 mM TRIS, 1 mM EDTA, 0.01% (v/v) Tween-20, 2.5% (v/v) DMSO). After shaking, the plate was incubated for 15 min at RT. To start the reaction, 2-arachidonoylglycerol in assay buffer was added. The final concentrations in the assay was […] for MAGL protein and 8 μM 2-arachidonoylglyerol. After shaking and 30 min incubation at RT, the reaction was quenched by the addition of two assay volumes of acetonitrile containing 4 μM of d8-arachidonic acid. The amount of arachidonic acid formed was traced by an online SPE system (Agilent Rapidfire) coupled to a triple quadrupole mass spectrometer. A C18 SPE cartridge (Agilent G9205A) was used in an acetonitrile/water liquid setup. The mass spectrometer was operated in negative electrospray mode following the mass transitions 303.1→259.1 for arachidonic acid and 311.1→267.0 for d8-arachidonic acid. The activity of the compounds was calculated based on the ratio of intensities [arachidonic acid/d 8-arachidonic acid].

| Compound | pIC50 |
| --- | --- |
| O=C1NC2(CO1)CN(C(=O)N1CC3(CC(CNC4(C(F)(F)F)CC4)C3)C1)C2 [Example 49, 2-[6-[[[1-(trifluoromethyl)cyclopro-ropyl]amino]methyl]-2-azaspiro[3.3]heptane-2-carbonyl]-7-oxa-2,5-diazaspiro[3.4]octan-6-one] | 9.11 |
| O=C1NC2(CO1)CN(C(=O)N1CC3(CC(NS(=O)(=O)c4cccc(C(F)(F)F)c4)C3)C1)C2 [Example 50, N-[2-(6-keto-7-oxa-2,5-diazaspiro[3.4]octane-2-carbonyl)-2-azaspiro[3.3]heptan-6-yl]-3-(trifluoromethyl)benzene-sulfonamide] | 9.11 |
| O=C1NC2(CO1)CN(C(=O)N1CC3(CC(Cn4cc(C(F)(F)F)cn4)C3)C1)C2 [Example 53, 2-[6-[[4-(trifluoromethyl)pyrazol-1-y1]methyl]-2-azaspiro[3.3]heptane-2-carbonyl]-7-oxa-2,5-diazaspiro[3.4]octan-6-one] | 9.36 |
| O=C1CCC2(CN(C(=O)N3CC4(CC(Cn5cc(C(F)(F)F)cn5)C4)C3)C2)N1 [Example 54, 2-[6-[[4-(trifluoromethyl)pyrazol-1-y1]methyl]-2-azaspiro[3.3]heptane-2-carbonyl]-2,5-diazaspiro[3.4]octan-6-one] | 8.03 |
| O=C1CCC2(CN(C(=O)N3CC4(CC(NS(=O)(=O)c5cccc(C(F)(F)F)c5)C4)C3)C2)N1 [Example 55, N-[2-(6-keto-2,5-diazaspiro[3.4]octane-2-carbonyl)-2-azaspiro[3.3]heptan-6-yl]-3-(trifluoromethyl)benzen esulfonamide] | 8.01 |
| O=C1CCC2(CN(C(=O)N3CC4(CC(Cc5nc(C(F)(F)F)co5)C4)C3)C2)N1 [Example 58, 2-[6-[[4-(trifluoromethyl)oxazol-2-yl]methyl]-2-azaspiro[3.3]heptane-2-carbonyl]-2,5-diazaspiro[3.4]octan-6-one] | 7.76 |
| O=C1CCC2(CN(C(=O)N3CC4(CC(Cn5cnc(C(F)(F)F)c5)C4)C3)C2)N1 [Example 59, 2-[6-[[4-(trifluoromethyl)imidazol-1-yl]methyl]-2-azaspiro[3.3]heptane-2-carbonyl]-2,5-diazaspiro[3.4]octan-6-one] | 7.44 |
| O=C1NC2(CO1)CN(C(=O)N1CC3(CCC(OCC4(C(F)(F)F)CC4)CC3)C1)C2 [Example 62, 2-[7-[[1-(trifluoromethyl)cyclopro-pyl]methoxy]-2-azaspiro[3.5]nonane-2-carbonyl]-7-oxa-2,5-diazaspiro[3.4]octan-6-one] | 9.01 |
| O=C1NC2(CO1)CN(C(=O)N1CC3(CC(OCC4(C(F)(F)F)CC4)C3)C1)C2 [Example 64, 2-[6-[[1-(trifluoromethyl)cyclopro-pyl]methoxy]-2-azaspiro[3.3]heptane-2-carbonyl]-7-oxa-2,5-diazaspiro[3.4]octan-6-one] | 8.89 |
| O=C1CCC2(CN(C(=O)N3CC4(CC(Cn5cnc(C(F)(F)F)n5)C4)C3)C2)N1 [Example 66, 2-[6-[[3-(trifluoromethyl)-1,2,4-triazol-1-yl]methyl]-2-carbonyl]-2,5-diazaspiro[3.4]octan-6-one] | 7.52 |
| O=C1NC2(CO1)CN(C(=O)N1CC3(CC(C(=O)NC4(C(F)(F)F)CC4)C3)C1)C2 [Example 67, 2-(6-keto-7-oxa-2,5-diazaspiro[3.4]octane-carbonyl)-N-[1-(trifluoromethyl)cyclopro-pyl]-2-azaspiro[3.3]heptane-6-carboxamide] | 7.05 |
| O=C1NC2(CO1)CN(C(=O)N1CC3(CCC(Oc4ccnc(C(F)(F)F)n4)CC3)C1)C2 [Example 68, 2-[7-[2-(trifluoromethyl)pyrimi-din-4-yl]oxy-2-azaspiro[3.5]nonane-2-carbonyl]-7-oxa-2,5-diazaspiro[3.4]octan-6-one] | 8.67 |
| O=C1NC2(CO1)CN(C(=O)N1CC3(CCC(Oc4cnc(C(F)(F)F)cn4)CC3)C1)C2 [Example 69, 2-[7-[5-(trifluoromethyl)pyrazin-2-yl]oxy-2-azaspiro[3.5]nonane-2-carbonyl]-7-oxa-2,5-diazaspiro[3.4]octan-6-one] | 9.08 |
| O=C1NC2(CO1)CN(C(=O)N1CC3(CCC(Oc4cnc(C(F)(F)F)cn4)C3)C1)C2 (stereo not shown) [Example 71, 2-[6-[5-(trifluoromethyl)pyrazin-2-yl]oxy-2-azaspiro[3.4]octane-2-carbonyl]-7-oxa-2,5-diazaspiro[3.4]octan-6-one] | 8.48 |
| CS(=O)(=O)c1ccc(CC2CCC3(C2)CN(C(=O)N2CC4(COCC(=O)N4)C2)C3)cc1 (stereo not shown) [Example 72, 2-[6-(4-mesylbenzyl)-2-azaspiro[3.4]octane-2-carbonyl]-8-oxa-2,5-diazaspiro[3.5]nonan-6-one] | 7.01 |
| O=C1NC2(CO1)CN(C(=O)N1CC3(CC(c4cnc(C(F)(F)F)nc4)C3)C1)C2 [Example 78, 2-[6-[2-(trifluoromethyl)pyrimi-din-5-yl]-2-azaspiro[3.3]heptane-2-carbonyl]-7-oxa-2,5-diazaspiro[3.4]octan-6-one] | 8.64 |

The remaining compounds from weak to strong by pIC50, led by results:

| pIC50 | Compound |
| --- | --- |
| 6.13 | O=C1NC2(CCO1)CN(C(=O)N1CC3(CC(NS(=O)(=O)c4cccc(C(F)(F)F)c4)C3)C1)C2 [Example 52, N-[2-(6-keto-7-oxa-2,5-diazaspiro[3.5]nonane-2-carbonyl)-2-azaspiro[3.3]heptan-6-yl]-3-(trifluoromethyl)benzene-sulfonamide] |
| 6.57 | O=C1CCC2(CN(C(=O)N3CC4(CC(Oc5ccc(C(F)(F)F)nn5)C4)C3)C2)N1 [Example 75, 2-[6-[6-(trifluoromethyl)pyridazin-3-yl]oxy-2-azaspiro[3.3]heptane-2-carbonyl]-2,5-diazaspiro[3.4]octan-6-one] |
| 7.62 | O=C1NC2(CO1)CN(C(=O)N1CC3(CC(Nc4ccc(C(F)(F)F)nn4)C3)C1)C2 [Example 51, 2-[6-[[6-(trifluoromethyl)pyrida-zin-3-yl]amino]-2-azaspiro[3.3]heptane-2-carbonyl]-7-oxa-2,5-diazaspiro[3.4]octan-6-one] |
| 7.87 | O=C1CCC2(CN(C(=O)N3CC4(CC(Cc5nc(C(F)(F)F)ns5)C4)C3)C2)N1 [Example 57, 2-[6-[[3-(trifluoromethyl)-1,2,4-thiadiazol-5-y1]methyl]-2-azaspiro[3.3]heptane-2-carbonyl]-2,5-diazaspiro[3.4]octan-6-one] |
| 7.89 | O=C1NC2(CO1)CN(C(=O)N1CC3(CC(n4cnc(C5CC5)n4)C3)C1)C2 [Example 56, 2-[6-(3-cyclopropyl-1,2,4-triazol-1-yl)-2-azaspiro[3.3]heptane-2-carbonyl]-7-oxa-2,5-diazaspiro[3.4]octan-6-one] |
| 8.08 | O=C1NC2(CO1)CN(C(=O)N1CC3(CC(Oc4ccc(C(F)(F)F)nn4)C3)C1)C2 [Example 76, 2-[6-[6-(trifluoromethyl)pyrida-zin-3-yl]oxy-2-azaspiro[3.3]heptane-2-carbonyl]-7-oxa-2,5-diazaspiro[3.4]octan-6-one] |
| 8.43 | O=C1NC2(CO1)CN(C(=O)N1CC3(CC(Oc4cnc(C(F)(F)F)cn4)C3)C1)C2 [Example 70, 2-[6-[5-(trifluoromethyl)pyrazin-2-yl]oxy-2-azaspiro[3.3]heptane-2-carbonyl]-7-oxa-2,5-diazaspiro[3.4]octan-6-one] |
| 8.73 | O=C1NC2(CO1)CN(C(=O)N1CC3(CC(NC4(C(F)(F)F)CC4)C3)C1)C2 [Example 65, 2-[6-[[1-(trifluoromethyl)cyclopro-pyl]amino]-2-azaspiro[3.3]heptane-2-carbonyl]-7-oxa-2,5-diazaspiro[3.4]octan-6-one] |
| 8.89 | O=C1NC2(CO1)CN(C(=O)N1CC3(CC(c4cnc(C(F)(F)F)cn4)C3)C1)C2 [Example 63, 2-[6-[5-(trifluoromethyl)pyrazin-2-yl]-2-azaspiro[3.3]heptane-2-carbonyl]-7-oxa-2,5-diazaspiro[3.4]octan-6-one] |
| 9.04 | CS(=O)(=O)c1ccc(CC2CCC3(C2)CN(C(=O)N2CC4(COC(=O)N4)C2)C3)cc1 (stereo not shown) [Example 77, 2-[6-(4-mesylbenzyl)-2-azaspiro[3.4]octane-2-carbonyl]-7-oxa-2,5-diazaspiro[3.4]octan-6-one] |
| 9.13 | O=C1CCC2(CN(C(=O)N3CC4(CCC(Cc5ccc(C(F)(F)F)cn5)CC4)C3)C2)N1 [Example 60, 2-[7-[[5-(trifluoromethyl)-2-pyridyl]methyl]-2-azaspiro[3.5]nonane-2-carbonyl]-2,5-diazaspiro[3.4]octan-6-one] |
| 9.72 | O=C1NC2(CO1)CN(C(=O)N1CC3(CCC(Cc4ccc(C(F)(F)F)cn4)CC3)C1)C2 [Example 61, 2-[7-[[5-(trifluoromethyl)-2-pyridyl]methyl]-2-azaspiro[3.5]nonane-2-carbonyl]-7-oxa-2,5-diazaspiro[3.4]octan-6-one] |
